Patent US20140323521A1, “PHARMACEUTICAL COMPOSITIONS AND ADMINISTRATIONS THEREOF” (Vertex Pharmaceuticals Incorporated, priority 2011, published 2014)

What was measured:
Experiment in all cases: FRT cell Ussing chamber chloride transport assay
Format in all cases: cell-based
human CFTR mutant S549R = target: T1, human CFTR mutant S549R (Homo sapiens, UniProt P13569, S549R); conditions: FRT cells expressing S549R CFTR
T1 construct: expressed in transfected cells; host or cells: Fisher rat thyroid (FRT) FlpIn cells, pcDNA5/FRT
From the text: (§1) DNA cloning: Wild-type CFTR coding region was inserted into pcDNA5/FRT (Invitrogen, San Diego, Calif.) between EcoRV and ApaI.
(§2) Single CFTR gene mutations were introduced into the wild-type CFTR coding sequence by using QuickChange XL site-directed mutagenesis kit (Stratagene, Cambridge, UK). The CFTR coding region as well as its promoter sequence and 3′ untranslated sequence was fully sequenced to confirm the mutagenesis reaction.
(§3) The CFTR gene was stably expressed in Fisher rat thyroid (FRT) cells through FlpIn system. The FRT-FlpIn host cell line was generated by stably transfecting FRT cells with pFRT/lacZeo. The single integration of a FRT site was confirmed by Southern blot. After the mutant CFTR DNA was transfected into the FRT-FlpIn host cell line, the cells were incubate at 37° C. in Coon's modified Ham's F12 containing 10% FBS, 1% Pen/Strep, and 36 ml of Na-Bicarbonate for up to 8 passages under hygromycin selection (200 ug/ml).
(§4) All cells were grown on Costar® Snapwell™ cell culture inserts at maintained at 37° C. prior to recording. The cell culture inserts were mounted into an Ussing chamber (VCC MC8; Physiologic Instruments, Inc., San Diego, Calif.) to record ISC in the voltage-clamp mode (Vhold=0 mV). For FRT cells, the basolateral membrane was permeabilized with 360 μg/ml Nystatin and a basolateral to apical Cl− gradient was established. The basolateral bath solution contained (in mM); 135 NaCl, 1.2 CaCl2, 1.2 MgCl2, 2.4 K2HPO4, 0.6 KHPO4, 10 N-2-hydroxyethylpiperazine-N′-2-ethanesulfonic acid (HEPES), and 10 dextrose (titrated to pH 7.4 with NaOH). The apical NaCl was replaced by equimolar Na+ gluconate (titrated to pH 7.4 with NaOH). For HBE cells, the ISC was measured in the presence of a basolateral to apical Cl− gradient. The normal Cl− solution contained (in mM) 145 NaCl, 3.3 K2HPO4, 1.2 MgCl2, 1.2 CaCl2, 10 Glucose, 10 HEPES (pH adjusted to 7.35 with NaOH) and the low Cl− solution contained (in mM) 145 NaGluconate, 1.2 MgCl2, 1.2 CaCl2, 10 glucose, 10 HEPES (pH adjusted to 7.35 with NaOH). All recordings were digitally acquired using a Acquire and Analyze software (version 2; Physiologic Instruments, Inc. San Diego, Calif.).
(§5) The 10 μM forskolin stimulated response in FRT cell expressing different mutant CFTR forms or in HBE cells isolated from CF patients was normalized to the 10 μM forskolin-stimulated response in FRT cells expressing wild-type CFTR or in HBE isolated from non-CF individuals and expressed as % wild-type CFTR. In HBE, amiloride was added prior to forskolin application to block the epithelial Na+ channel.

human CFTR mutant G551S = target: T2, human CFTR mutant G551S (Homo sapiens, UniProt P13569, G551S); conditions: FRT cells expressing G551S CFTR
T2 construct: expressed in transfected cells; host or cells: Fisher rat thyroid (FRT) FlpIn cells, pcDNA5/FRT
From the text: as §1, §2, §3, §4, §5

human CFTR mutant S1251N = target: T3, human CFTR mutant S1251N (Homo sapiens, UniProt P13569, S1251N); conditions: FRT cells expressing S1251N CFTR
T3 construct: expressed in transfected cells; host or cells: Fisher rat thyroid (FRT) FlpIn cells, pcDNA5/FRT
From the text: as §1, §2, §3, §4, §5

human CFTR mutant G1349D = target: T4, human CFTR mutant G1349D (Homo sapiens, UniProt P13569, G1349D); conditions: FRT cells expressing G1349D CFTR
T4 construct: expressed in transfected cells; host or cells: Fisher rat thyroid (FRT) FlpIn cells, pcDNA5/FRT
From the text: as §1, §2, §3, §4, §5

human CFTR mutant S549N = target: T5, human CFTR mutant S549N (Homo sapiens, UniProt P13569, S549N); conditions: FRT cells expressing S549N CFTR
T5 construct: expressed in transfected cells; host or cells: Fisher rat thyroid (FRT) FlpIn cells, pcDNA5/FRT
From the text: as §1, §2, §3, §4, §5

human CFTR mutant G1244E = target: T6, human CFTR mutant G1244E (Homo sapiens, UniProt P13569, G1244E); conditions: FRT cells expressing G1244E CFTR
T6 construct: expressed in transfected cells; host or cells: Fisher rat thyroid (FRT) FlpIn cells, pcDNA5/FRT
From the text: as §1, §2, §3, §4, §5

human CFTR mutant G178R = target: T7, human CFTR mutant G178R (Homo sapiens, UniProt P13569, G178R); conditions: FRT cells expressing G178R CFTR
T7 construct: expressed in transfected cells; host or cells: Fisher rat thyroid (FRT) FlpIn cells, pcDNA5/FRT
From the text: as §1, §2, §3, §4, §5

human CFTR mutant S1255P = target: T8, human CFTR mutant S1255P (Homo sapiens, UniProt P13569, S1255P); conditions: FRT cells expressing S1255P CFTR
T8 construct: expressed in transfected cells; host or cells: Fisher rat thyroid (FRT) FlpIn cells, pcDNA5/FRT
From the text: as §1, §2, §3, §4, §5

human CFTR mutant G970R = target: T9, human CFTR mutant G970R (Homo sapiens, UniProt P13569, G970R); conditions: FRT cells expressing G970R CFTR
T9 construct: expressed in transfected cells; host or cells: Fisher rat thyroid (FRT) FlpIn cells, pcDNA5/FRT
From the text: as §1, §2, §3, §4, §5

Measured: increase in chloride transport, relative to baseline chloride transport

T7 sequence (P13569 whole entry G178R): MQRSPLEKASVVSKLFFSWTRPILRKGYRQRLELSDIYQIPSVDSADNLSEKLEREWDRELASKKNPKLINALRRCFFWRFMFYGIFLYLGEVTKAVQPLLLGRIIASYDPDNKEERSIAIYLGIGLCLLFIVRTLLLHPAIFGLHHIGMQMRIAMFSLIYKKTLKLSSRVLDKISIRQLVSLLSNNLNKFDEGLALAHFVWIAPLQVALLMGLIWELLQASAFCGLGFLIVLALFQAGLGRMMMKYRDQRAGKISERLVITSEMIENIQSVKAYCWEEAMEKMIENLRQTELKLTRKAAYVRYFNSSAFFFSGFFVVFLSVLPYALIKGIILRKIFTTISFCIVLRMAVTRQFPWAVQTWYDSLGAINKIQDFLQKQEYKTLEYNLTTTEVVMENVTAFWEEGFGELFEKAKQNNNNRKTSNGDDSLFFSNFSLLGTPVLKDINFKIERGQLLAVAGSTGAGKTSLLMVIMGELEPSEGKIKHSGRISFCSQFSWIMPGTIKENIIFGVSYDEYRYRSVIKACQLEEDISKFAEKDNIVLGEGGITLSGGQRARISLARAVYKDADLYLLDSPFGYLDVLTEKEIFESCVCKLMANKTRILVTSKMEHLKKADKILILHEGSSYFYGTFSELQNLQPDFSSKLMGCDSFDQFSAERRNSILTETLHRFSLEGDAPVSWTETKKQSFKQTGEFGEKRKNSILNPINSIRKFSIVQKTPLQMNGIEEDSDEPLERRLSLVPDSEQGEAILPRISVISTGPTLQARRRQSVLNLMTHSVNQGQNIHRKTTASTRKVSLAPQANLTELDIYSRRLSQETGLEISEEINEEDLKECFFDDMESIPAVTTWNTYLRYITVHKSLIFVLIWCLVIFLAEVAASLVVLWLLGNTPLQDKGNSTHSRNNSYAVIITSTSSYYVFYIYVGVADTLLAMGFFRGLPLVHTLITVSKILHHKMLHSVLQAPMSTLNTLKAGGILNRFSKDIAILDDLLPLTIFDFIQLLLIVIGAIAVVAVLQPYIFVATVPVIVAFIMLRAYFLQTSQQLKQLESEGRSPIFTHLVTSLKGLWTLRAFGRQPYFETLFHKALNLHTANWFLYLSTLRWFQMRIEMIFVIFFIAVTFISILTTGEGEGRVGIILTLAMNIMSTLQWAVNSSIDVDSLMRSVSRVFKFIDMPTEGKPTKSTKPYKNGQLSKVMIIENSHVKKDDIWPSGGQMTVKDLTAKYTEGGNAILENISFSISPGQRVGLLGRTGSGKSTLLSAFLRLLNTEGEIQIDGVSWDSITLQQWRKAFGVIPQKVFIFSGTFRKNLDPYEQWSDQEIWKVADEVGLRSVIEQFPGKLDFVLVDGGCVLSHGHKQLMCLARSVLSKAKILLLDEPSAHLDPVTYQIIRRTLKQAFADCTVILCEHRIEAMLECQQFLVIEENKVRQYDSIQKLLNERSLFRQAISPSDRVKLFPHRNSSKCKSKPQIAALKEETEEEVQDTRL
T3 sequence (P13569 whole entry S1251N): as the sequence (P13569 whole entry G178R) above, with R178G, S1251N counted along it
T4 sequence (P13569 whole entry G1349D): as the sequence (P13569 whole entry G178R) above, with R178G, G1349D counted along it
T6 sequence (P13569 whole entry G1244E): as the sequence (P13569 whole entry G178R) above, with R178G, G1244E counted along it
T9 sequence (P13569 whole entry G970R): as the sequence (P13569 whole entry G178R) above, with R178G, G970R counted along it
T2 sequence (P13569 whole entry G551S): as the sequence (P13569 whole entry G178R) above, with R178G, G551S counted along it
T1 sequence (P13569 whole entry S549R): as the sequence (P13569 whole entry G178R) above, with R178G, S549R counted along it
T5 sequence (P13569 whole entry S549N): as the sequence (P13569 whole entry G178R) above, with R178G, S549N counted along it
T8 sequence (P13569 whole entry S1255P): as the sequence (P13569 whole entry G178R) above, with R178G, S1255P counted along it

CC(C)(C)c1cc(C(C)(C)C)c(NC(=O)c2c[nH]c3ccccc3c2=O)cc1O [Compound 1, N-[2,4-bis(1,1-dimethylethyl)-5-hydroxyphenyl]-1,4-dihydro-4-oxoquinoline-3-carboxamide]
greater than 10 fold: all assays above
